Key:
Assay in all cases: relative viability (nuclei count vs DMSO), 5 days (fraction); higher = more cells survive
Apatinib + Luminespib = compound: N#CC1(c2ccc(NC(=O)c3cccnc3NCc3ccncc3)cc2)CCCC1 [Apatinib] + CCNC(=O)c1noc(-c2cc(C(C)C)c(O)cc2O)c1-c1ccc(CN2CCOCC2)cc1 [Luminespib] (partner 0.01 µM)
In short: (§1)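 Lung cancer cell lines in 1536-well plates got either a single drug or a fixed anchor-drug dose together with five library-drug doses (not always all listed) in √10 steps, by pin tool, on the day after seeding. Nuclei were counted after 5 days, and relative viability is the treated-to-vehicle ratio of nuclei counts. Values are medians of duplicate plates.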

Metformin + Vorinostat = compound: CN(C)C(=N)NC(=N)N [Metformin] + O=C(CCCCCCC(=O)Nc1ccccc1)NO [Vorinostat] (partner 1 µM)
In short: as §1

Apatinib + Tozasertib = compound: N#CC1(c2ccc(NC(=O)c3cccnc3NCc3ccncc3)cc2)CCCC1 [Apatinib] + Cc1cc(Nc2cc(N3CCN(C)CC3)nc(Sc3ccc(NC(=O)C4CC4)cc3)n2)n[nH]1 [Tozasertib] (partner 0.1 µM)
In short: as §1

Apatinib + Olaparib = compound: N#CC1(c2ccc(NC(=O)c3cccnc3NCc3ccncc3)cc2)CCCC1 [Apatinib] + O=C(c1cc(Cc2n[nH]c(=O)c3ccccc23)ccc1F)N1CCN(C(=O)C2CC2)CC1 [Olaparib] (partner 8 µM)
In short: as §1

Row | Cell Line | relative viability (Apatinib + Luminespib; first compound 0.08 µM) | relative viability (Apatinib + Luminespib; first compound 0.253 µM) | relative viability (Apatinib + Luminespib; first compound 0.8 µM) | relative viability (Apatinib + Luminespib; first compound 2.53 µM) | relative viability (Apatinib + Luminespib; first compound 8 µM) | relative viability (Metformin + Vorinostat; first compound 10 µM) | relative viability (Metformin + Vorinostat; first compound 31.62 µM) | relative viability (Metformin + Vorinostat; first compound 100 µM) | relative viability (Metformin + Vorinostat; first compound 316.23 µM) | relative viability (Metformin + Vorinostat; first compound 1000 µM) | relative viability (Apatinib + Tozasertib; first compound 0.08 µM) | relative viability (Apatinib + Tozasertib; first compound 0.253 µM) | relative viability (Apatinib + Tozasertib; first compound 0.8 µM) | relative viability (Apatinib + Tozasertib; first compound 2.53 µM) | relative viability (Apatinib + Tozasertib; first compound 8 µM) | relative viability (Apatinib + Olaparib; first compound 0.08 µM) | relative viability (Apatinib + Olaparib; first compound 0.253 µM) | relative viability (Apatinib + Olaparib; first compound 0.8 µM) | relative viability (Apatinib + Olaparib; first compound 2.53 µM) | relative viability (Apatinib + Olaparib; first compound 8 µM)
1 | NCI-H2085 | 0.396 | 0.527 | 0.429 | 0.421 | 0.361 | 0.733 | 0.747 | 0.775 | 0.788 | 0.812 | 0.844 | 0.767 | 0.726 | 0.379 | 0.406 | 0.763 | 0.748 | 0.766 | 0.68 | 0.771
2 | ChaGo-K-1 | 0.618 | 0.679 | 0.661 | 0.519 | 0.564 | 0.663 | 0.777 | 0.751 | 0.667 | 0.723 | 0.194 | 0.227 | 0.193 | 0.208 | 0.178 | 0.47 | 0.523 | 0.443 | 0.408 | 0.344
3 | SK-LU-1 | 0.196 | 0.201 | 0.202 | 0.182 | 0.186 | 0.723 | 0.645 | 0.759 | 0.667 | 0.766 | 0.337 | 0.436 | 0.28 | 0.275 | 0.243 | 0.503 | 0.453 | 0.435 | 0.549 | 0.436
4 | COR-L23 | 0.687 | 0.643 | 0.702 | 0.628 | 0.509 | 0.312 | 0.304 | 0.406 | 0.288 | 0.362 | 0.263 | 0.165 | 0.149 | 0.143 | 0.129 | 0.355 | 0.377 | 0.324 | 0.273 | 0.286
5 | COR-L 105 | 0.796 | 0.789 | 0.896 | 0.697 | 0.67 | 0.795 | 0.807 | 0.895 | 0.848 | 0.495 | 0.387 | 0.313 | 0.355 | 0.351 | 0.304 | 0.794 | 0.802 | 0.737 | 0.543 | 0.672
6 | HCC-44 | 0.98 | 1.21 | 1.03 | 1.02 | 0.751 |  | 1.02 | 1.09 | 1.06 | 1.03 | 1.23 | 1.12 | 0.75 | 0.844 | 0.494 | 0.989 | 1 | 0.924 | 0.97 | 0.971
7 | PC-3 [JPC-3] | 0.712 | 0.701 | 0.711 | 0.622 | 0.485 | 0.737 | 0.664 |  | 0.85 | 0.554 | 0.904 | 0.871 | 0.78 | 0.814 | 0.681 |  | 1.12 | 0.983 | 1.1 | 1.06
8 | H3255 | 0.791 | 0.782 | 0.811 | 0.644 | 0.829 | 0.627 | 0.921 | 0.758 | 0.811 | 0.929 | 0.775 | 0.697 | 0.795 | 0.521 | 0.435 | 0.621 | 0.627 | 0.609 | 0.516 | 0.455
9 | RERF-LC-KJ | 1.11 | 1.35 | 1.07 | 1.22 | 1.02 | 0.564 | 0.745 | 0.634 | 0.534 | 0.612 | 0.538 | 0.428 | 0.393 | 0.326 | 0.293 | 0.919 | 0.801 | 0.903 | 0.782 | 0.715
10 | NCI-H2347 | 0.501 | 0.415 | 0.404 | 0.416 | 0.789 | 0.602 | 0.619 | 0.71 | 0.575 | 0.599 | 0.504 | 0.651 | 0.604 | 0.428 | 0.466 | 0.634 | 0.485 | 0.583 | 0.517 | 0.493
11 | NCI-H520 | 0.218 | 0.245 | 0.223 | 0.216 | 0.207 | 0.748 | 0.757 | 0.84 | 0.714 | 0.763 | 0.445 | 0.427 | 0.437 | 0.409 | 0.417 | 0.375 | 0.32 | 0.401 | 0.28 | 0.314
12 | NCI-H1395 | 0.713 | 0.686 | 0.784 | 0.604 | 0.527 | 0.855 | 1.24 | 0.819 | 0.868 | 0.414 | 0.734 | 0.832 | 0.722 | 0.661 | 0.52 | 0.485 | 0.459 | 0.488 | 0.452 | 0.395
13 | LK-2 | 0.185 | 0.178 | 0.187 | 0.209 | 0.188 | 0.232 | 0.264 | 0.273 | 0.339 | 0.397 | 0.159 | 0.195 | 0.183 | 0.152 | 0.175 | 0.903 | 0.581 | 0.64 | 0.63 | 0.515
14 | PC-14 | 0.121 | 0.15 |  | 0.167 | 0.144 | 0.618 | 0.598 | 0.567 | 0.415 | 0.533 | 0.7 | 0.65 | 0.536 | 0.562 | 0.493 | 0.278 | 0.28 | 0.222 | 0.213 | 0.252
15 | NCI-H2023 | 0.981 | 0.917 | 0.708 | 0.507 | 0.649 | 0.292 | 0.712 | 0.354 | 0.496 | 0.38 | 0.43 | 0.307 | 0.195 | 0.162 | 0.135 | 0.429 | 0.508 | 0.462 | 0.35 | 0.395
16 | NCI-H838 | 0.332 | 0.286 | 0.388 | 0.282 | 0.249 | 0.645 | 0.586 | 0.675 | 0.569 | 0.654 | 0.301 | 0.302 | 0.248 | 0.222 | 0.213 | 0.853 | 0.831 | 0.762 | 0.69 | 0.696

Reference: the supplement of paper PMC10307832
